Laboratory results reported in US20260007684A1, “AMIDE DERIVATIVES FOR INHIBITING NLRP3 AND USES THEREOF” (Ventus Therapeutics U.S., Inc., priority 2023, published 2026).
Like-named read-outs stand apart in the source and are kept apart here.

Experiments:
human NLRP3 [1] = biological target: T1, human NLRP3 (Homo sapiens (Human), UniProt Q96P20); assay: Scintillation Proximity (SPA) NLRP3 Assay: displacement of 3H-MCC950; type: binding; details: for IC50: read-out: SPA IC50
human NLRP3 [2] = biological target: T1, human NLRP3; assay: Human PBMC NLRP3 Assay (LPS priming, ATP stimulation, cytokine measurement); type: cell-based
human NLRP3 [3] = biological target: T1, human NLRP3; assay: Human Whole Blood (hWB) NLRP3 Assay (LPS/ATP, IL-1β); type: cell-based
mouse NLRP3 = mouse NLRP3 (Mus musculus (Mouse), UniProt Q8R4B8); assay: Mouse Whole Blood (mWB) NLRP3 Assay (LPS/ATP, IL-1b); type: cell-based
Chain of mouse NLRP3 (Q8R4B8 whole entry): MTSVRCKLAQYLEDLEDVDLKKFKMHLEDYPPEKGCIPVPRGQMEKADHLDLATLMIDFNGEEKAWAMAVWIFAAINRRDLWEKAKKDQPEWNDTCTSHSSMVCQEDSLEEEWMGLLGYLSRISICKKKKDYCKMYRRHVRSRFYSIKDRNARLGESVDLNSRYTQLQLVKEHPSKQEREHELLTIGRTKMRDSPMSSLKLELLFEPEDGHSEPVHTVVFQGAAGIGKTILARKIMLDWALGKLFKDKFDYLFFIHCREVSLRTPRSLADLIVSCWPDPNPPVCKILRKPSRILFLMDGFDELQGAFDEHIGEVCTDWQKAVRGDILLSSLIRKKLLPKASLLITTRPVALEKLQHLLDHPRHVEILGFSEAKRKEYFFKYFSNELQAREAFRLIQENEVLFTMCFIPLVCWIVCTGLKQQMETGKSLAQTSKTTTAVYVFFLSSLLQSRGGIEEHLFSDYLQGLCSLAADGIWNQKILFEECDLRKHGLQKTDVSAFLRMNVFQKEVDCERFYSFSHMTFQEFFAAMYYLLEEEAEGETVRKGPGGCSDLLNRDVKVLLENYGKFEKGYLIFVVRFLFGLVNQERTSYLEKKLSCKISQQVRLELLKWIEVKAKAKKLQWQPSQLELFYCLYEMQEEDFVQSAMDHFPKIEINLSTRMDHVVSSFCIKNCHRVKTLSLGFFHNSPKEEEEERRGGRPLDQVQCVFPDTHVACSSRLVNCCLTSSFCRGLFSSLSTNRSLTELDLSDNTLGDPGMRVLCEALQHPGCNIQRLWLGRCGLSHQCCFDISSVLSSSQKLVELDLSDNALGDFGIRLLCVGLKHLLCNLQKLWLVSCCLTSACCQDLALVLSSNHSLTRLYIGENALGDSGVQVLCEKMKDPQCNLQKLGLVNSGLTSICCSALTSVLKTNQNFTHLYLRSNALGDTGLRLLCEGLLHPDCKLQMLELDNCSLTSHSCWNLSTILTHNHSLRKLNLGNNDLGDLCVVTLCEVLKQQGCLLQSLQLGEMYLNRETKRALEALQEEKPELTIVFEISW
Protocol: Reagents: The following reagents were used: blood collection tubes (Heparin); U-bottom 96-well tissue culture (Falcon 353077); HBSS for LPS, ATP and compound dilutions (Gibco 24020-117); and LPS, E. coli serotype 026:B6 (Sigma L-2654).
Mouse IL-1b MSD assay: Blood was drawn from female CD1 mice (9 to 10 weeks) by cardiac puncture. Blood was plated (135 μL) per well in 96-well U-bottom plates. 7.5 μL of 20×LPS (20 μg/mL, final concentration of 1 μg/mL) was added and mixed by gentle pipetting, and the mixture was incubated in a TC incubator for five hours. 7.5 μL of 20× compound or vehicle per well was added and mixed by gentle pipetting. Compounds were diluted 1/50 in HBSS to prepare a 20× dilution curve in […].
The mixture was incubated for 30 minutes in a TC incubator with shaking (450 rpm). 5 μl of 31×ATP (155 mM, final concentration of 5 mM) was added and mixed by gentle pipetting. The mixture was incubated in a TC incubator for 30 minutes with shaking (450 rpm). The plate was centrifuged for 10 minutes at 800×g and −70 μL of plasma was removed. Plasma was frozen if required. Mouse IL-1b was analyzed with IL-1b MSD assay (K152TUK).
Compounds were added 30 minutes before priming the cells with LPS when TNFα was required to be quantified in the cytokine panel to confirm selectivity.

[4] = PBMC IC50, human PBMC, LPS priming, ATP stimulation
[5] = hWB IC50, human whole blood, LPS/ATP, IL-1β
[6] = mouse whole blood, LPS/ATP, IL-1b
[7] = human whole blood, LPS/ATP, IL-1β, read-out: hWB IC50
[8] = human PBMC, LPS priming, ATP stimulation, read-out: PBMC IC50
[9] = relative to Comparative Example A*

T1 sequence (Q96P20 whole entry): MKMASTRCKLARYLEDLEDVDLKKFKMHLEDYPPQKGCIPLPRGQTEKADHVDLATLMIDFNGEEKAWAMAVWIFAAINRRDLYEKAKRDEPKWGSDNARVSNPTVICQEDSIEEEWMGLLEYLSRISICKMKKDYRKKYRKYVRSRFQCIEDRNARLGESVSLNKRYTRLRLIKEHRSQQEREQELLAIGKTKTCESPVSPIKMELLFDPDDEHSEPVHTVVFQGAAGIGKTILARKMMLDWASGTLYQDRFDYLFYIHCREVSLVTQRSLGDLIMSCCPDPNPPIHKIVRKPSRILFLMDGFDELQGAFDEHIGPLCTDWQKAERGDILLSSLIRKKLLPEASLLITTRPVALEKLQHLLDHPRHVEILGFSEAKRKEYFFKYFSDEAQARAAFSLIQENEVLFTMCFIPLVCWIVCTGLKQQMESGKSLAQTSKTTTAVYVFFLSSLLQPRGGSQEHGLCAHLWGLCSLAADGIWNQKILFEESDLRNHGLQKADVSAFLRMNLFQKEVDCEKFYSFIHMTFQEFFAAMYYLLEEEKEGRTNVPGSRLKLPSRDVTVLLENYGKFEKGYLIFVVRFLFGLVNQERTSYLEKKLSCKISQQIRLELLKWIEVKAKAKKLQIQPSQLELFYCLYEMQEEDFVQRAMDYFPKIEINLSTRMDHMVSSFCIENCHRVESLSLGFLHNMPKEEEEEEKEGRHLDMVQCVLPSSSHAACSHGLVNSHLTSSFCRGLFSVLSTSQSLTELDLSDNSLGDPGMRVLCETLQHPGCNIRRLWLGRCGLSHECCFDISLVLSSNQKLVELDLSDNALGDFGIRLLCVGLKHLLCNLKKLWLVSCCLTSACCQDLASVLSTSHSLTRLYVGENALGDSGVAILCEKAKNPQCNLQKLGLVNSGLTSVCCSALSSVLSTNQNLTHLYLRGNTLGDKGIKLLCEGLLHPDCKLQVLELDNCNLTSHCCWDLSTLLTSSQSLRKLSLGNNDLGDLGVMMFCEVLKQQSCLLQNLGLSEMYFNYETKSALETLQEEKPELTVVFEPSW

Row | Structure (SMILES) | IC50 (human NLRP3 [1]; displacement of 3H-MCC950) [nM] | IC50 (mouse NLRP3; [6]) [nM] | IC50 (human NLRP3 [3]; [7]) [nM] | IC50 (human NLRP3 [2]; [8]) [nM] | further results
1 | O=C(N[C@@H]1CC[C@H]2CC[C@@H]1N2c1nnn[nH]1)C1(c2ccc(C(F)(F)F)cc2O)CC1 (single isomer, unassigned) [34C*] | < 1000 | < 1000 | – | – | IC50 (human NLRP3 [2]; [4]): 10 to 100 nM; IC50 (human NLRP3 [3]; [5]): < 1000 nM
2 | C[C@@H]1C[C@@H](NC(=O)C2(c3ccc(C(F)(F)F)cc3)CC2)[C@H]2CC[C@@H]1N2c1nnn[nH]1 [79A*, N-((1R,2R,4R,5S)-4-methyl-8-(1H-tetrazol-5-yl)-8-azabicyclo[3.2.1]octan-2-yl)-1-(4-(trifluoromethyl)phenyl)cyclopropane-1-carboxamide] | < 1000 | < 1000 | – | – | IC50 (human NLRP3 [2]; [4]): < 10 nM; IC50 (human NLRP3 [3]; [5]): < 1000 nM
3 | C[C@@H]1CCN(c2nnn[nH]2)C[C@H](NC(=O)C2(c3ccc(Cl)cc3)CC2)C1 (single isomer, unassigned) [12A*, 1-(4-chlorophenyl)-N-(5-methyl-1-(1H-tetrazol-5-yl)azepan-3-yl)cyclopropane-1-carboxamide] | < 1000 | < 1000 | < 1000 | < 10 | –
4 | O=C(Nc1cccc(-c2nnn[nH]2)c1)C1(c2ccc(Cl)cc2)CC1 [Comparative Example B1, N-(3-(1H-tetrazol-5-yl)phenyl)-1-(4-chlorophenyl)cyclopropane-1-carboxamide, reference compound] | – | – | – | – | IC50 (human NLRP3 [1]): 8000 nM; IC50 (human NLRP3 [2]; read-out: PBMC IC50): 480 nM; IC50 (mouse NLRP3): > 50000 nM
5 | O=C(N[C@@H]1CCCN(c2nnn[nH]2)C1)C1(c2ccc(Cl)cc2)CC1 [Compound 10A, (R)-N-(1-(1H-tetrazol-5-yl)piperidin-3-yl)-1-(4-chlorophenyl)cyclopropane-1-carboxamide] | 1000 to 10000 | 1000 to 2000 | > 3000 | > 500 | IC50 (human NLRP3 [1]): 9500 nM; fold increase in binding activity (SPA IC50) (human NLRP3 [1]; [9]): > 40 fold; IC50 (human NLRP3 [2]; read-out: PBMC IC50): 2100 nM; fold increase in potency as measured by PBMC IC50 (human NLRP3 [2]; relative to Comparative Example F): 4 fold; fold increase in potency as measured by PBMC IC50 (human NLRP3 [2]; relative to Comparative Example G): > 47 fold; fold increase in potency as measured by PBMC IC50 (human NLRP3 [2]; relative to Comparative Example H): 5 fold; fold increase in potency as measured by PBMC IC50 (human NLRP3 [2]; relative to Comparative Example J1): > 47 fold; fold increase in potency as measured by PBMC IC50 (human NLRP3 [2]; relative to Comparative Example J2): > 47 fold; IC50 (human NLRP3 [3]; read-out: hWB IC50): 7300 nM; fold increase in potency as measured by hWB IC50 (human NLRP3 [3]; [9]): > 6 fold; IC50 (mouse NLRP3): 1900 nM; fold increase in potency as measured by mWB IC50 (mouse NLRP3; relative to Comparative Example B1): 26 fold
6 | C[C@H]1C[C@@H](NC(=O)C2(c3c(O)cc(C4CC4)cc3C(F)F)CC2)CN(c2nnn[nH]2)C1 (single isomer, unassigned) [97A*] | < 1000 | < 1000 | – | 100 to 500 | –
7 | C[C@@H]1CCN(c2nnn[nH]2)C[C@H](NC(=O)C2(c3ccc(C(F)(F)F)cc3O)CC2)C1 (single isomer, unassigned) [63A*] | < 1000 | – | < 1000 | < 10 | –
8 | O=C(N[C@H]1CN(c2nnn[nH]2)CCC(F)(F)C1)C1(c2ccc(Cl)cc2)CC1 (single isomer, unassigned) [53A*] | < 1000 | < 1000 | < 1000 | – | –
9 | Cc1ccc(C2(C(=O)N[C@@H]3C[C@@H](C)[C@@H]4CC[C@H]3N4c3nnn[nH]3)CC2)cc1 [87A*, N-((1R,2R,4R,5S)-4-methy1-8-(1H-tetrazol-5-yl)-8-azabicyclo[3.2.1]octan-2-yl)-1-(p-tolyl)cyclopropane-1-carboxamide] | < 1000 | – | 1000 to 2000 | – | IC50 (human NLRP3 [2]; [4]): 10 to 100 nM
10 | O=C(N[C@@H]1CCC[C@@H]2CC[C@H]1N2c1nnn[nH]1)C1(c2ccc(C3CC3)cc2O)CC1 [93A*, N-((1R,2R,6R)-9-(1H-tetrazol-5-yl)-9-azabicyclo[4.2.1]nonan-2-yl)-1-(4-cyclopropyl-2-hydroxyphenyl)cyclopropane-1-carboxamide] | < 1000 | – | – | – | IC50 (human NLRP3 [2]; [4]): 10 to 100 nM; IC50 (human NLRP3 [3]; [5]): 2000 to 3000 nM
11 | Cc1c(Cl)ccc(C2(C(=O)N[C@@H]3C[C@H](C)CCN(c4nnn[nH]4)C3)CC2)c1O (single isomer, unassigned) [21A*, 1-(4-chloro-2-hydroxy-3-methylphenyl)-N-(5-methyl-1-(1H-tetrazol-5-yl)azepan-3-yl)cyclopropane-1-carboxamide] | < 1000 | – | < 1000 | < 10 | –
12 | C[C@H]1CC[C@@H](NC(=O)C2(c3ccc(Cl)cc3O)CC2)CN(c2nnn[nH]2)C1 (single isomer, unassigned) [90A*] | < 1000 | – | > 3000 | < 10 | –
13 | O=C(N[C@@H]1CC[C@H]2CC[C@@H]1N2c1nnn[nH]1)C1(c2ccc(OC(F)F)cc2O)CC1 [77C*, N-((1S,2R,5S)-8-(1H-tetrazol-5-yl)-8-azabicyclo[3.2.1]octan-2-yl)-1-(4-(difluoromethoxy)-2-hydroxyphenyl)cyclopropane-1-carboxamide] | < 1000 | – | – | – | IC50 (human NLRP3 [2]; [4]): 10 to 100 nM; IC50 (human NLRP3 [3]; [5]): < 1000 nM
14 | O=C(N[C@@H]1CC[C@H]2CC[C@@H]1N2c1nnn[nH]1)C1(c2ccc(OC(F)(F)F)cc2O)CC1 [78C*, N-((1S,2R,5S)-8-(1H-tetrazol-5-yl)-8-azabicyclo[3.2.1]octan-2-yl)-1-(2-hydroxy-4-(trifluoromethoxy)phenyl)cyclopropane-1-carboxamide] | < 1000 | – | 2000 to 3000 | – | IC50 (human NLRP3 [2]; [4]): 10 to 100 nM
15 | C[C@@H]1CCN(c2nnn[nH]2)C[C@H](NC(=O)C2(c3ccc(Cl)c(F)c3O)CC2)C1 (single isomer, unassigned) [18A*, 1-(4-chloro-3-fluoro-2-hydroxyphenyl)-N-(5-methyl-1-(1H-tetrazol-5-yl)azepan-3-yl)cyclopropane-1-carboxamide] | < 1000 | – | < 1000 | < 10 | –
16 | C[C@@H]1CCN(c2nnn[nH]2)C[C@H](NC(=O)C2(c3ccc(OC(F)(F)F)cc3)CC2)C1 (single isomer, unassigned) [57A*] | < 1000 | – | 1000 to 2000 | 10 to 100 | –
17 | C[C@@H]1CCN(c2nnn[nH]2)C[C@@H](NC(=O)C2(c3ccc(OC(F)(F)F)cc3O)CC2)C1 (single isomer, unassigned) [62B*] | < 1000 | – | 1000 to 2000 | 10 to 100 | –

Continued, in another order:

Row | IC50 (human NLRP3 [1]; displacement of 3H-MCC950) [nM] | IC50 (mouse NLRP3; [6]) [nM] | IC50 (human NLRP3 [3]; [7]) [nM] | IC50 (human NLRP3 [2]; [8]) [nM] | Structure (SMILES) | further results
18 | 1000 to 10000 | 1000 to 2000 | 1000 to 2000 | – | O=C(N[C@@H]1CCCN(c2nnn[nH]2)C1)C1(c2ccc(Br)cc2)CC1 [Compound 39A, 1-(4-bromophenyl)-N-[(3R)-1-(1H-tetrazol-5-yl)-3-piperidyl]cyclopropanecarboxamide] | –
19 | 1000 to 10000 | < 1000 | 2000 to 3000 | – | O=C(N[C@@H]1C[C@H](C(F)(F)F)CN(c2nnn[nH]2)C1)C1(c2ccc(Cl)cc2)CC1 [Compound 45A, 1-(4-chlorophenyl)-N-[(3R,5S)-1-(1H-tetrazol-5-yl)-5-(trifluoromethyl)-3-piperidyl]cyclopropanecarboxamide] | –
20 | 1000 to 10000 | 1000 to 2000 | < 1000 | 10 to 100 | O=C(N[C@@H]1CCCCN(c2nnn[nH]2)C1)C1(c2ccc(Cl)cc2)CC1 [Compound 51A, 1-(4-chlorophenyl)-N-[(3R)-1-(1H-tetrazol-5-yl)azepan-3-yl]cyclopropanecarboxamide] | IC50 (human NLRP3 [1]): 2200 nM; fold increase in binding activity (SPA IC50) (human NLRP3 [1]; relative to Compound 10A): > 4 fold; IC50 (human NLRP3 [2]; read-out: PBMC IC50): 44 nM; fold increase in potency as measured by PBMC IC50 (human NLRP3 [2]; relative to Compound 10A): 48 fold; IC50 (human NLRP3 [3]; read-out: hWB IC50): 720 nM; fold increase in potency as measured by hWB IC50 (human NLRP3 [3]; relative to Compound 10A): > 10 fold; IC50 (mouse NLRP3): 1800 nM
21 | < 1000 | – | < 1000 | 10 to 100 | Cc1ccc(C2(C(=O)N[C@@H]3C[C@H](C)CN(c4nnn[nH]4)C3)CC2)c(O)c1 [Compound 20A, 1-(2-hydroxy-4-methylphenyl)-N-((3R,5S)-5-methyl-1-(1H-tetrazol-5-yl)piperidin-3-yl)cyclopropane-1-carboxamide] | –
22 | < 1000 | – | < 1000 | 10 to 100 | C[C@H]1C[C@@H](NC(=O)C2(c3ccc(OC(F)F)cc3O)CC2)CN(c2nnn[nH]2)C1 [Compound 19A, 1-(4-(difluoromethoxy)-2-hydroxyphenyl)-N-((3R,5S)-5-methyl-1-(1H-tetrazol-5-yl)piperidin-3-yl)cyclopropane-1-carboxamide] | –
23 | < 1000 | – | > 3000 | 10 to 100 | Cc1cc(Cl)cc(O)c1C1(C(=O)N[C@@H]2C[C@H](C)CN(c3nnn[nH]3)C2)CC1 [Compound 33A, 1-(4-chloro-2-hydroxy-6-methylphenyl)-N-((3R,5S)-5-methyl-1-(1H-tetrazol-5-yl)piperidin-3-yl)cyclopropane-1-carboxamide] | –
